The results in this text go back to PubChem BioAssay AID1259411 (Chemical Carcinogenesis Research Information System (CCRIS), 2018).

Calls of active or inactive are those of the source. The rule behind the calls is not given here.

In the data set the test system is rodent carcinogenicity bioassays, tumor incidence. The data set is described as follows: CCRIS carcinogenicity studies. The note with it: Dose: 0, Dose: 0. The procedure, abridged:
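NCI-built, expert-reviewed records of carcinogenicity and related test outcomes (mutagenicity, tumor promotion/inhibition) compiled from published and report sources, historical span 1985-2011, not updated.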

As to `C=CC`, the carcinogen call reads like this: (Species: MOUSE, Strain/Sex: B6C3F1/FEMALE, Route: INHALATION, 5000, 10000 PPM IN AIR 6H/D 5D/WK FOR 103 WK (STUDY DURATION: 104 WK), 5000, 10000 PPM IN AIR 6H/D 5D/WK FOR 103 WK (STUDY DURATION: 104 WK)) “inactive; negative”; (Species: MOUSE, Strain/Sex: B6C3F1/MALE, Route: INHALATION, 5000, 10000 PPM IN AIR 6H/D 5D/WK FOR 103 WK (STUDY DURATION: 104 WK), 5000, 10000 PPM IN AIR 6H/D 5D/WK FOR 103 WK (STUDY DURATION: 104 WK)) “inactive; negative”; (Species: MOUSE, Strain/Sex: SWISS/FEMALE, Route: INHALATION, 200, 1000, 5000 PPM 7 HR/D, 5D/WK FOR 78 WK (STUDY DURATION: LIFESPAN), 200, 1000, 5000 PPM 7 HR/D, 5D/WK FOR 78 WK (STUDY DURATION: LIFESPAN)) “inactive; negative”; (Species: MOUSE, Strain/Sex: SWISS/MALE, Route: INHALATION, 200, 1000, 5000 PPM 7 HR/D, 5D/WK FOR 78 WK (STUDY DURATION: LIFESPAN), 200, 1000, 5000 PPM 7 HR/D, 5D/WK FOR 78 WK (STUDY DURATION: LIFESPAN)) “inactive; negative”; (Species: RAT, Strain/Sex: F344/FEMALE, Route: INHALATION, 5000, 10000 PPM IN AIR 6H/D 5D/WK FOR 103 WK (STUDY DURATION: 104 WK), 5000, 10000 PPM IN AIR 6H/D 5D/WK FOR 103 WK (STUDY DURATION: 104 WK)) “inactive; negative”; (Species: RAT, Strain/Sex: F344/MALE, Route: INHALATION, 5000, 10000 PPM IN AIR 6H/D 5D/WK FOR 103 WK (STUDY DURATION: 104 WK), 5000, 10000 PPM IN AIR 6H/D 5D/WK FOR 103 WK (STUDY DURATION: 104 WK)) “inactive; negative”. Also, the carcinogen call runs as follows: (Species: RAT, Strain/Sex: SPRAGUE-DAWLEY/FEMALE, Route: INHALATION, 200, 1000, 5000 PPM 7 HR/D, 5D/WK FOR 104 WK (STUDY DURATION: LIFESPAN), 200, 1000, 5000 PPM 7 HR/D, 5D/WK FOR 104 WK (STUDY DURATION: LIFESPAN)) “inactive; negative”; (Species: RAT, Strain/Sex: SPRAGUE-DAWLEY/FEMALE, Route: INHALATION, 200, 1000, 5000 PPM IN AIR 7 HR/D 5 D/WK FOR 104 WK (STUDY DURATION: LIFETIME), 200, 1000, 5000 PPM IN AIR 7 HR/D 5 D/WK FOR 104 WK (STUDY DURATION: LIFETIME), Tumor Site: Type of Lesion: [BRAIN WAS ONLY SITE EVALUATED]) “inactive; negative”; (Species: RAT, Strain/Sex: SPRAGUE-DAWLEY/MALE, Route: INHALATION, 200, 1000, 5000 PPM 7 HR/D, 5D/WK FOR 104 WK (STUDY DURATION: LIFESPAN), 200, 1000, 5000 PPM 7 HR/D, 5D/WK FOR 104 WK (STUDY DURATION: LIFESPAN)) “inactive; negative”; (Species: RAT, Strain/Sex: SPRAGUE-DAWLEY/MALE, Route: INHALATION, 200, 1000, 5000 PPM IN AIR 7 HR/D 5 D/WK FOR 104 WK (STUDY DURATION: LIFETIME), 200, 1000, 5000 PPM IN AIR 7 HR/D 5 D/WK FOR 104 WK (STUDY DURATION: LIFETIME), Tumor Site: Type of Lesion: [BRAIN WAS ONLY SITE EVALUATED]) “inactive; negative”.

On to `O=[N+]([O-])c1ccc2ccc3cc4ccccc4c4ccc1c2c34`, for which the carcinogen call was “inactive; negative” (Species: MOUSE, Strain/Sex: B6C3F1/MALE, Route: INTRAPERITONEAL, 400 NMOL IN 35 µL DMSO ON DAYS 1 (1/7 TOTAL DOSE), 8 (2/7 TOTAL DOSE), AND 15 (4/7 TOTAL DOSE) AFTER BIRTH (STUDY DUR) and “inactive; negative” (Species: RAT, Strain/Sex: F344/MALE, Route: SUBCUTANEOUS, 500, 1000 UG SUSPENDED IN BEESWAX/TRICAPRYLIN (1:1) ONCE (STUDY DURATION: LIFETIME), 500, 1000 UG SUSPENDED IN BEESWAX/TRICAPRYLIN (1:1) ONCE (STUDY DURATION: LIFETIME)).

As for `O=P(O)(O)O`, the carcinogen call by setting is: (Species: MOUSE, Strain/Sex: B6C3F1/FEMALE, Route: GAVAGE, 500, 1000 MG/KG IN DEIONIZED WATER 5D/WK FOR 103 WK (STUDY DURATION: 105 WK), 500, 1000 MG/KG IN DEIONIZED WATER 5D/WK FOR 103 WK (STUDY DURATION: 105 WK)) “inactive; negative”; (Species: MOUSE, Strain/Sex: B6C3F1/MALE, Route: GAVAGE, 500, 1000 MG/KG IN DEIONIZED WATER 5D/WK FOR 103 WK (STUDY DURATION: 105 WK), 500, 1000 MG/KG IN DEIONIZED WATER 5D/WK FOR 103 WK (STUDY DURATION: 105 WK)) “inactive; negative”.

With `CN1CCN(N=O)CC1`, the carcinogen call (Species: RAT, Strain/Sex: SPRAGUE-DAWLEY/FEMALE, Route: INHALATION, 2.4 PPM 14.5 HR/D FOR 74 D OVER 7.5 MONTHS (STUDY DURATION: 350 D), Tumor Site: Type of Lesion: NASAL CAVITY: TUMOR) was “active; positive”.

Consider `CO[Si](CCC1CCC2OC2C1)(OC)OC` (stereo not given), for which the carcinogen call (Species: MOUSE, Strain/Sex: C3H/MALE, Route: DERMAL, 25 MG IN ACETONE 3/WK FOR DURATION OF STUDY (STUDY DURATION: LIFETIME), Tumor Site: Type of Lesion: SKIN: CARCINOMA) was “active; positive”.

For the molecule `C[C@]12CC[C@@H]3c4ccc(OC(=O)Cc5ccc(N(CCCl)CCCl)cc5)cc4CC[C@H]3[C@@H]1CC[C@@H]2OC(=O)Cc1ccc(N(CCCl)CCCl)cc1`, the carcinogen call was “active; positive” (Species: MOUSE, Strain/Sex: B6C3F1/FEMALE, Route: GAVAGE, 15, 30 MG/KG 3/WK FOR 52 WKS, 15, 30 MG/KG 3/WK FOR 52 WKS, Tumor Site: Type of Lesion: LUNG: ALVEOLAR/BRONCHIOLAR ADENOMA OR CARCINOMA, LYMPHATIC SYSTEM: LYMPHOMA, MYOCARDIUM: SARCOMA, STOMACH, Tumor Site: Type of Lesion: LUNG: ALVEOLAR/BRONCHIOLAR ADENOMA OR CARCINOMA, LYMPHATIC SYSTEM: LYMPHOMA, MYOCARDIUM: SARCOMA, STOMACH); “active; positive” (Species: MOUSE, Strain/Sex: B6C3F1/MALE, Route: GAVAGE, 15, 30 MG/KG 3/WK FOR 52 WKS, 15, 30 MG/KG 3/WK FOR 52 WKS, Tumor Site: Type of Lesion: LUNG: ALVEOLAR/BRONCHIOLAR ADENOMA OR CARCINOMA, HEMATOPOIETIC SYSTEM (LEUKEMIA): LYMPHOCYTIC LEUKEMIA, LYMPHATIC SYSTEM, Tumor Site: Type of Lesion: LUNG: ALVEOLAR/BRONCHIOLAR ADENOMA OR CARCINOMA, HEMATOPOIETIC SYSTEM (LEUKEMIA): LYMPHOCYTIC LEUKEMIA, LYMPHATIC SYSTEM); “inactive; negative” (Species: RAT, Strain/Sex: SPRAGUE-DAWLEY/FEMALE, Route: GAVAGE, 0.62, 1.25 MG/KG IN 0.05% POLYSORB 80 IN PHOS BUFF SALINE 3/WK FOR 52 WK, 0.62, 1.25 MG/KG IN 0.05% POLYSORB 80 IN PHOS BUFF SALINE 3/WK FOR 52 WK); “inactive; negative” (Species: RAT, Strain/Sex: SPRAGUE-DAWLEY/MALE, Route: GAVAGE, 0.62, 1.25 MG/KG IN 0.05% POLYSORB 80 IN PHOS BUFF SALINE 3/WK FOR 52 WK, 0.62, 1.25 MG/KG IN 0.05% POLYSORB 80 IN PHOS BUFF SALINE 3/WK FOR 52 WK).
